What was measured:
[1] = Partition coefficient (logP); format: physicochemical; settings: octanol/water
[2] = LogD value represents the distribution coefficient at pH 7.3.; format: physicochemical; settings: octanol/water
[3] = Compound was evaluated for its dissociation constant.; format: ADME
Rattus norvegicus [4] = experiment: Effective dose required to cause 50% fall in mean blood pressure (BP) by the compound on iv administration; format: functional
Rattus norvegicus [5] = experiment: The effective dose required to produce a change in the mean power spectrum of the EEG equivalent to that of a standard dose (0.32 mg/kg) of arecoline on iv administration; format: functional
[6] = Ratio of 50% fall in mean blood pressure (BP) to rhythmical slow wave activity (RSA) was determined; format: functional
[7] = biological target: Muscarinic acetylcholine receptor; experiment: In vitro inhibition of [3H]quinuclidinyl benzilate (QNB) binding to muscarinic receptors of rat cerebral cortex; format: tissue-based
[8] = biological target: Muscarinic acetylcholine receptor; experiment: In vitro inhibition of oxotremorine-M (OXO-M) binding to muscarinic receptors of rat cerebral cortex; format: tissue-based
[9] = biological target: Muscarinic acetylcholine receptor (Rattus norvegicus) (UniProt P08482+P08483+P08485+P08911+P10980); experiment: Relative affinities compared to oxotremorine-M (OXO-M) and [3H]quinuclidinyl benzilate (QNB) for muscarinic receptors; format: protein assay

`CO/N=C(\C)C1CN2CCC1CC2` (centres undefined) gave a logP [1] of 1.88, a logD [2] of -1.09 and a pKa [3] of 10.3. For the same molecule, the ED50 (Rattus norvegicus [4]) was over 0.1 mg/kg, the “ED Arec” value (Rattus norvegicus [5]) was 0.31 mg/kg and the Ratio [6] was over 0.35.
`CO/N=C(\Cl)C12CCCN(CC1)C2` (centres undefined) gave a logP [1] of 2.12, a logD [2] of 0.18 and a pKa [3] of 9.24. The IC50 [7] was 3 µM, the IC50 [8] was 0.072 µM and the ED50 (Rattus norvegicus [4]) was 0.32 mg/kg. For the same molecule, the “ED Arec” value (Rattus norvegicus [5]) was 0.029 mg/kg, the Ratio [6] was 11 and the Ratio [9] was 42.
`CO/N=C(\Br)C12CCN(CC1)C2` showed an IC50 [7] of 8.1 µM, an IC50 [8] of 0.16 µM and a Ratio [9] of 51.
With `CO/N=C(\Cl)C1CN2CCC1CC2` (centres undefined) the IC50 [7] was 1.1 µM, the IC50 [8] was 0.069 µM and the Ratio [9] was 16.
Work on `CO/N=C(\Cl)C12CCN(CC1)C2` yielded an IC50 [7] of 8.5 µM, an IC50 [8] of 0.051 µM and a Ratio [9] of 167.
In the case of `CO/N=C(\C#N)[C@H]1CN2CCC1C2` (some centres undefined), the IC50 [7] is reported as 2.3 µM and the IC50 [8] is reported as 0.023 µM.
Molecule `CO/N=C(\Br)C12CCCN(CC1)C2` (centres undefined) has an IC50 [7] of 2.3 µM, an IC50 [8] of 0.19 µM and a Ratio [9] of 12.
Work on `CO/N=C(\F)C1CN2CCC1CC2` (centres undefined) yielded an IC50 [7] of 2 µM, an IC50 [8] of 0.034 µM and a Ratio [9] of 65.
`CO/N=C(\F)[C@H]1CN2CC[C@H]1C2` showed an IC50 [7] of 3.1 µM, an IC50 [8] of 0.009 µM and a Ratio [9] of 344.
`CO/N=C(\Br)[C@H]1CN2CC[C@H]1C2` gave an IC50 [7] of 3 µM, an IC50 [8] of 0.059 µM and a Ratio [9] of 51.
In the case of `CO/N=C(\F)C12CCCN(CC1)C2` (centres undefined), the logP [1] is reported as 1.01, the logD [2] is reported as -0.76 and the pKa [3] is reported as 9.06. For the same molecule, the IC50 [7] was 2.4 µM, the IC50 [8] was 0.043 µM and the ED50 (Rattus norvegicus [4]) was 0.03 mg/kg. For the same molecule, the “ED Arec” value (Rattus norvegicus [5]) was 0.012 mg/kg, the Ratio [6] was 2.5 and the Ratio [9] was 56.
For `CO/N=C(\Cl)[C@H]1CN2CC[C@H]1C2`, the IC50 [7] was 3 µM, the IC50 [8] was 0.064 µM and the Ratio [9] was 47.
In the case of `CO/N=C(\C#N)C12CCN(CC1)C2`, the IC50 [7] is reported as 1.95 µM, the IC50 [8] is reported as 0.019 µM and the Ratio [9] is reported as 103.
With `CO/N=C(\C)C12CCCN(CC1)C2` (centres undefined) the logP [1] was 1.65, the logD [2] was -1.13 and the pKa [3] was 10.1. The ED50 (Rattus norvegicus [4]) was 0.068 mg/kg, the “ED Arec” value (Rattus norvegicus [5]) was 0.068 mg/kg and the Ratio [6] was 1.
`CO/N=C(\F)C12CCN(CC1)C2` gave an IC50 [7] of 15.5 µM, an IC50 [8] of 0.044 µM and a Ratio [9] of 352.
With `CO/N=C(\C#N)C1CN2CCC1CC2` (centres undefined) the logP [1] was 1.56, the logD [2] was -0.11 and the pKa [3] was 8.96. It also gave an IC50 [7] of 0.47 µM, an IC50 [8] of 0.033 µM and an ED50 (Rattus norvegicus [4]) of over 0.56 mg/kg. For the same molecule, the “ED Arec” value (Rattus norvegicus [5]) was 0.052 mg/kg, the Ratio [6] was over 10.8 and the Ratio [9] was 14.
In the case of `CO/N=C(\C#N)C12CCCN(CC1)C2` (centres undefined), the logP [1] is reported as 1.49, the logD [2] is reported as -0.18 and the pKa [3] is reported as 8.96. It also gave an IC50 [7] of 0.22 µM, an IC50 [8] of 0.011 µM and an ED50 (Rattus norvegicus [4]) of 0.02 mg/kg. For the same molecule, the “ED Arec” value (Rattus norvegicus [5]) was 0.005 mg/kg and the Ratio [6] was 4.
